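Cells were grown in 96-well plates and exposed to each compound for 48 hours at five concentrations; endpoints were interpolated linearly between bracketing concentrations, or set to the highest concentration if not reached. GI50 is the concentration that inhibits growth by half.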 Active and inactive are the calls of the source. Rule as the data show it: active = GI50 up to about 1.1 µM and inactive = higher.
Legend:
Test in all cases: growth of human tumour cells (NCI), 48 h
OVCAR-4 = tested on: OVCAR-4
MCF7 = tested on: MCF7
A549 = tested on: A549
TK-10 = tested on: TK-10
HOP-92 = tested on: HOP-92
OVCAR-3 = tested on: OVCAR-3
NCI-H522 = tested on: NCI-H522
A498 = tested on: A498
HCT-116 = tested on: HCT-116
SR = tested on: SR
PC-3 = tested on: PC-3
UACC-257 = tested on: UACC-257
RXF 393 = tested on: RXF 393
U-251 = tested on: U-251
NCI-H23 = tested on: NCI-H23
MDA-N = tested on: MDA-N
T47D = tested on: T47D
SNB-19 = tested on: SNB-19
CAKI-1 = tested on: CAKI-1
SF-539 = tested on: SF-539

| Compound | GI50 (OVCAR-4) | GI50 (MCF7) | GI50 (A549) | GI50 (TK-10) | GI50 (HOP-92) | GI50 (OVCAR-3) | GI50 (NCI-H522) | GI50 (A498) | GI50 (HCT-116) | GI50 (SR) | GI50 (PC-3) | GI50 (UACC-257) | GI50 (RXF 393) | GI50 (U-251) | GI50 (NCI-H23) | GI50 (MDA-N) | GI50 (T47D) | GI50 (SNB-19) | GI50 (CAKI-1) | GI50 (SF-539) |
| --- | --- | --- | --- | --- | --- | --- | --- | --- | --- | --- | --- | --- | --- | --- | --- | --- | --- | --- | --- | --- |
| NCc1nnn(Cc2ccccc2)c1N | > 100 µM (inactive) | > 100 µM (inactive) | > 100 µM (inactive) | > 100 µM (inactive) | > 100 µM (inactive) | > 100 µM (inactive) | > 100 µM (inactive) | > 100 µM (inactive) | > 100 µM (inactive) | > 100 µM (inactive) | > 100 µM (inactive) | > 100 µM (inactive) | > 100 µM (inactive) | > 100 µM (inactive) | > 100 µM (inactive) | > 100 µM (inactive) | > 100 µM (inactive) | > 100 µM (inactive) | > 100 µM (inactive) | > 100 µM (inactive) |
| Cc1c(C)c2c(c(N)c1C#N)C(=O)N(Cc1ccc(S(N)(=O)=O)cc1)C2=O | > 100 µM (inactive) | > 75 µM (inactive) | > 58.6 µM (inactive) | 22.4 µM (inactive) | 13.6 µM (inactive) | > 41.5 µM (inactive) |  | 27.9 µM (inactive) | 32.9 µM (inactive) | > 100 µM (inactive) | > 64 µM (inactive) | > 100 µM (inactive) | 7.46 µM (inactive) | 7.18 µM (inactive) | 18.9 µM (inactive) | > 100 µM (inactive) | > 39.2 µM (inactive) | 5.51 µM (inactive) | > 100 µM (inactive) | > 34.4 µM (inactive) |
| CC(C)OP(=O)(OC(C)C)/C(C#N)=C/c1ccco1 | > 100 µM (inactive) | > 100 µM (inactive) | > 100 µM (inactive) | > 100 µM (inactive) | > 100 µM (inactive) | > 100 µM (inactive) | > 100 µM (inactive) | > 100 µM (inactive) | > 100 µM (inactive) | > 100 µM (inactive) | > 100 µM (inactive) | > 100 µM (inactive) | > 100 µM (inactive) | > 100 µM (inactive) | > 100 µM (inactive) | > 100 µM (inactive) | > 100 µM (inactive) | > 100 µM (inactive) | > 100 µM (inactive) | > 100 µM (inactive) |
| CC(CO)CCNc1ncnc2c1ncn2CCC(=O)O (configuration not stated) | > 100 µM (inactive) | > 100 µM (inactive) | > 100 µM (inactive) | > 100 µM (inactive) | > 100 µM (inactive) | > 100 µM (inactive) | > 100 µM (inactive) | > 100 µM (inactive) | > 100 µM (inactive) | > 100 µM (inactive) | > 100 µM (inactive) | > 100 µM (inactive) | > 100 µM (inactive) |  | > 100 µM (inactive) | > 100 µM (inactive) | > 100 µM (inactive) | > 100 µM (inactive) | > 100 µM (inactive) | > 100 µM (inactive) |
| CCOC(=O)/C=C\C(C#N)(C#N)/N=C/c1ccsc1 | 6.43 µM (inactive) | 2.51 µM (inactive) | 19.1 µM (inactive) | 2.1 µM (inactive) | 2.05 µM (inactive) | 2.54 µM (inactive) | 0.9 µM (active) | 19 µM (inactive) | 2.17 µM (inactive) | 1.04 µM (active) | 8.99 µM (inactive) | 6.81 µM (inactive) | 2.26 µM (inactive) | 17.1 µM (inactive) | 9.68 µM (inactive) | 8.91 µM (inactive) | 2 µM (inactive) | 23.1 µM (inactive) | 2.25 µM (inactive) | 6.55 µM (inactive) |
| O=C(NNCc1ccco1)c1cc2ccccc2[nH]1 | > 39.1 µM (inactive) | 0.133 µM (active) | > 100 µM (inactive) | > 58.1 µM (inactive) | 48 µM (inactive) | > 55.6 µM (inactive) | 34.3 µM (inactive) | > 100 µM (inactive) | > 86.1 µM (inactive) | > 78.9 µM (inactive) | > 91 µM (inactive) | > 62.5 µM (inactive) | > 100 µM (inactive) |  | > 61.9 µM (inactive) | > 100 µM (inactive) | 13.5 µM (inactive) | > 80.2 µM (inactive) | > 100 µM (inactive) | > 61.9 µM (inactive) |
| O=C1C=C(Nc2ccccc2C(=O)CC(=O)C(=O)Nc2cccc(C(F)(F)F)c2)c2ccccc2C1=O | 17.9 µM (inactive) | 15.2 µM (inactive) | 46.5 µM (inactive) | > 96.4 µM (inactive) | 31.4 µM (inactive) | 6.35 µM (inactive) | 23.1 µM (inactive) | > 100 µM (inactive) | 23 µM (inactive) | 8.85 µM (inactive) | 17.9 µM (inactive) | 15.3 µM (inactive) | 20.8 µM (inactive) | 31.3 µM (inactive) | 13.6 µM (inactive) | 12.6 µM (inactive) | > 100 µM (inactive) | 54.3 µM (inactive) | 64 µM (inactive) | 22.5 µM (inactive) |
| COc1cccc(-c2nc(O)c3ccccc3n2)c1 |  | 22.1 µM (inactive) | 21 µM (inactive) | 17.9 µM (inactive) | 27 µM (inactive) | 21.2 µM (inactive) | 23.2 µM (inactive) | 22.4 µM (inactive) | 22.5 µM (inactive) | > 100 µM (inactive) | 20.1 µM (inactive) | 21.7 µM (inactive) | 25.4 µM (inactive) | 7.31 µM (inactive) | 26.7 µM (inactive) | 17.3 µM (inactive) | 21.8 µM (inactive) | 19.8 µM (inactive) | 16.4 µM (inactive) | 23.3 µM (inactive) |
| CC[C@H]1C=CCC[C@@]2(C[C@@H]3CC[C@@H]4[C@H](C(=O)OCCCCCCCCCCCCCCCC(=O)O)[C@]5(CCC[C@@H](C)O5)NC(=[N+]34)N2)O1 [CRAMBESCIDIN 657] | 0.157 µM (active) | 0.214 µM (active) | 0.164 µM (active) | 0.367 µM (active) | 0.153 µM (active) | 0.301 µM (active) | 0.131 µM (active) | 0.306 µM (active) | 0.169 µM (active) | 0.0521 µM (active) | 0.1 µM (active) | 0.12 µM (active) | 0.216 µM (active) | 0.183 µM (active) | 0.488 µM (active) | 0.189 µM (active) | 0.32 µM (active) | 0.365 µM (active) | 0.182 µM (active) | 0.272 µM (active) |
| CC(=O)CC1(CBr)Nc2ccc([N+](=O)[O-])cc2NC1=O (configuration not stated) | 81.8 µM (inactive) | 40.9 µM (inactive) | > 100 µM (inactive) | 82.2 µM (inactive) | 59.6 µM (inactive) | 28.1 µM (inactive) | 18.5 µM (inactive) | > 100 µM (inactive) | 31.8 µM (inactive) | 34 µM (inactive) | 60.4 µM (inactive) | > 100 µM (inactive) | 32.7 µM (inactive) | > 100 µM (inactive) | > 100 µM (inactive) | > 100 µM (inactive) | 42.9 µM (inactive) | > 100 µM (inactive) | > 100 µM (inactive) | 44.1 µM (inactive) |
| COC(=O)c1c(O)ccc2c1c1c(n2Cc2cc(OC)cc(OC)c2)C(=O)c2ccccc2C1=O | 9.93 µM (inactive) | 4.63 µM (inactive) | 5.07 µM (inactive) | 13 µM (inactive) | 4.92 µM (inactive) | 7.87 µM (inactive) | 3.03 µM (inactive) | 54.2 µM (inactive) | 4.74 µM (inactive) | 2.44 µM (inactive) | 4.39 µM (inactive) | 23.9 µM (inactive) | 8.32 µM (inactive) | 8.26 µM (inactive) | 8.28 µM (inactive) | 3.85 µM (inactive) | 10.9 µM (inactive) | 24.4 µM (inactive) | 18.7 µM (inactive) | 11.5 µM (inactive) |
| CCN1C/C(=C\c2ccc(Cl)cc2)c2[nH]c(=O)c(C#N)c(-c3ccc(Cl)cc3)c2C1 | > 100 µM (inactive) | > 100 µM (inactive) | > 100 µM (inactive) | > 100 µM (inactive) | > 100 µM (inactive) | > 100 µM (inactive) |  | > 100 µM (inactive) | > 100 µM (inactive) | 18.4 µM (inactive) | > 100 µM (inactive) | > 100 µM (inactive) | > 100 µM (inactive) | > 100 µM (inactive) | > 100 µM (inactive) | > 100 µM (inactive) | > 100 µM (inactive) | > 100 µM (inactive) |  | > 100 µM (inactive) |
| O=C(Nn1c(-c2ccccc2)nc2ccccc2c1=O)c1ccc(O)cc1 | > 100 µM (inactive) | > 100 µM (inactive) | > 100 µM (inactive) | > 100 µM (inactive) | > 100 µM (inactive) | > 100 µM (inactive) | > 100 µM (inactive) | > 100 µM (inactive) | > 100 µM (inactive) | > 100 µM (inactive) | > 100 µM (inactive) | > 100 µM (inactive) | > 100 µM (inactive) | > 100 µM (inactive) | > 100 µM (inactive) | > 100 µM (inactive) | > 100 µM (inactive) | > 100 µM (inactive) |  | > 100 µM (inactive) |
| COc1ccc2c(c1)C(N)=C(c1ccccc1)C2=O | > 100 µM (inactive) | > 100 µM (inactive) | 64.6 µM (inactive) | > 100 µM (inactive) | > 100 µM (inactive) | > 100 µM (inactive) | > 100 µM (inactive) | > 100 µM (inactive) | 58.3 µM (inactive) | 8.75 µM (inactive) | > 100 µM (inactive) | > 100 µM (inactive) |  | 94.4 µM (inactive) | 38.8 µM (inactive) | > 100 µM (inactive) | 32.5 µM (inactive) | 24.4 µM (inactive) | > 100 µM (inactive) | > 100 µM (inactive) |

— ChEMBL document CHEMBL1201862, “PubChem BioAssay data set” (2004)
